27 molecules from patent publication US8778966B2, “Quinolinone derivatives as PARP and tank inhibitors” (Janssen Pharmaceutica, NV, priority 2007, dated 2014) can be followed below.

The subject of one test is HCT116 cells. The test can be described thus: Antiproliferative activity, Alamar Blue assay, HCT116 cells. The test is classed as cell-based, human. More on the design: key to HCT116 antiproliferative activity pIC50: pIC50 = -log IC50 (IC50: conc. reducing growth to 50% of control). The settings on record: for IC50: Homo sapiens, HCT-116, HCT116 cells, read-out: HCT116 antiproliferative activity pIC50 (converted). The essentials:
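HCT116 cells seeded, adhered 24 h, then exposed to compound for 4 days; Alamar Blue (resazurin) added for 4 h at 37 °C, fluorescence read at 540/590 nm. Viability as % of untreated control, triplicate wells; IC50 by probit analysis, reported as pIC50.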

The target in a further test is T1, Human PARP-1 enzyme (Homo sapiens, UniProt P09874).
T1 construct: purchased Trevigen
Kind of test: In vitro Scintillation Proximity Assay (SPA) for PARP-1 inhibitory activity. The test is classed as biochemical. The note with it: read-out: in vitro SPA assay PARP-1 pIC50 (converted). A digest of the protocol:
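SPA assay: nicked-DNA-activated PARP-1 (0.1–0.2 μg/ml) ADP-ribosylates biotinylated histones (2 μg/ml) using [3H]-NAD+, 20 min at RT in Tris pH 8/DTT/MgCl2, stopped with 2 mM NAD+. Blank-subtracted cpm expressed as % control; IC50 by linear interpolation, reported as pIC50 (10−5 to 3×10−9 M tested).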
For orientation: SPA uses beads or plates that emit light when radiolabelled molecules are held near them.

T1 sequence (P09874 whole entry): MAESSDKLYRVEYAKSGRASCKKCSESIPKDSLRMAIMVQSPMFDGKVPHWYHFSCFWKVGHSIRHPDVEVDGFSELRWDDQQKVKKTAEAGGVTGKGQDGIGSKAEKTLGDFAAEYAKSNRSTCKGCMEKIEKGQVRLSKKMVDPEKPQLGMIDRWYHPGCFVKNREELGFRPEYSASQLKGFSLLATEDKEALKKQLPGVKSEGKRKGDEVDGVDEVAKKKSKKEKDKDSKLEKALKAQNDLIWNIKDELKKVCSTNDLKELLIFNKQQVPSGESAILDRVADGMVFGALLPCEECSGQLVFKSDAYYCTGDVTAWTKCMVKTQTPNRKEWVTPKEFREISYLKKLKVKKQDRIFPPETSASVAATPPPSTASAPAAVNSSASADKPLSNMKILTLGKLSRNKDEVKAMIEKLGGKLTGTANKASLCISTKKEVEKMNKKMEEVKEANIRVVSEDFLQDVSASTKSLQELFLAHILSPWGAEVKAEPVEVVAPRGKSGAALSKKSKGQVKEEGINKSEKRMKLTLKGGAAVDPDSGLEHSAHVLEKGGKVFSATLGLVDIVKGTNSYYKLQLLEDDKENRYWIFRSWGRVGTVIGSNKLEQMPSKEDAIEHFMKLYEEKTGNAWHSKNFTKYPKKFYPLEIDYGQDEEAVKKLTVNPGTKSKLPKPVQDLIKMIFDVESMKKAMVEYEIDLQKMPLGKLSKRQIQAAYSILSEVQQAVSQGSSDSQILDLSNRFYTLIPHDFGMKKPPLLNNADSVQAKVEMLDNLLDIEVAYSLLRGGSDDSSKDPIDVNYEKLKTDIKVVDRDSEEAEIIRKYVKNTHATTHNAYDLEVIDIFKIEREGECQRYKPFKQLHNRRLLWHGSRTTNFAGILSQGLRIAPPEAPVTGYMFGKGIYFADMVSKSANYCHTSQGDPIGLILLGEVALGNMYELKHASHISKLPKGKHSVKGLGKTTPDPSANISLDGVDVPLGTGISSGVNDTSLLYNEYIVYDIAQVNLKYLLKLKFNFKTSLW

Regarding `CCOc1cc(N(C)C)nc(CC(C)(C#N)c2ccc3cc(CC)c(=O)[nH]c3c2)n1` (stereo not drawn) [Compound 312], the IC50 was 501 nM in the test on HCT116 cells and 39.8 nM at Human PARP-1 enzyme.

As for `CCOc1cc(C#N)nc(CC(C)(C#N)c2ccc3cc(CC)c(=O)[nH]c3c2)n1` (stereo not drawn) [Compound 315], the values for the IC50 in the test on HCT116 cells and at Human PARP-1 enzyme were 631 nM and 63.1 nM, respectively.

Turning to `CCc1cc2ccc(C(C#N)(CC)Cc3nc(C#N)cc(OC)n3)cc2[nH]c1=O` (stereo not drawn) [Compound 316], the values for the IC50 in the test with HCT116 cells and at Human PARP-1 enzyme were 631 nM and 39.8 nM, respectively.

Consider `CCc1cc2ccc(C(C#N)(CC)Cc3nc(OC)cc(OC)n3)cc2[nH]c1=O` (stereo not drawn) [Compound 321], for which the IC50 is 316 nM in the test on HCT116 cells and 79.4 nM on Human PARP-1 enzyme.

As to `CCc1cc2ccc(C(C)(C#N)Cc3ccnc(C#N)c3)cc2[nH]c1=O` (stereo not drawn) [Compound 324], the IC50 was 3160 nM with HCT116 cells and 39.8 nM at Human PARP-1 enzyme.

Take `CCc1cc2ccc(C(C)(C#N)Cc3cc(C)nc(Cl)c3)cc2[nH]c1=O` (stereo not drawn) [Compound 326]: the IC50 with HCT116 cells was 794 nM; at Human PARP-1 enzyme, 63.1 nM.

As for `CCc1cc2ccc(C(C)(C#N)Cc3cc(C)nc(C#N)c3)cc2[nH]c1=O` (stereo not drawn) [Compound 328], the IC50 in the test with HCT116 cells was 501 nM; at Human PARP-1 enzyme, 63.1 nM.

`CCc1cc2ccc(C(C)(C#N)Cc3ccnc(F)c3)cc2[nH]c1=O` (stereo not drawn) [Compound 330]: the IC50 with HCT116 cells is 5010 nM; at Human PARP-1 enzyme it was 39.8 nM.

Regarding `CCc1cc2ccc(C(C)(C#N)Cc3cccc(F)n3)cc2[nH]c1=O` (stereo not drawn) [Compound 331], the IC50 with HCT116 cells is 631 nM; at Human PARP-1 enzyme it was 31.6 nM.

With `CCc1cc2ccc([C@](C)(C#N)Cc3cc(F)cc(F)c3)cc2[nH]c1=O` [Compound 333], the IC50 in the test with HCT116 cells is 10000 nM; at Human PARP-1 enzyme, 31.6 nM.

Regarding `CCc1cc2ccc(C(C)(C#N)Cc3ccc(C(F)(F)F)nc3C)cc2[nH]c1=O` (stereo not drawn) [Compound 340], the figures for the IC50 in the test with HCT116 cells and at Human PARP-1 enzyme were 3160 nM and 100 nM, respectively.

In the case of `CCc1cc2ccc(C(C)(C#N)Cc3ccnc(Cl)c3)cc2[nH]c1=O` (stereo not drawn) [Compound 341], the IC50 in the test on HCT116 cells is 2510 nM; at Human PARP-1 enzyme, 63.1 nM.

For the molecule `CCc1cc2ccc(C(C#N)(CC)Cc3cccc(C#N)n3)cc2[nH]c1=O` (stereo not drawn) [Compound 342], the IC50 in the test with HCT116 cells is 501 nM; at Human PARP-1 enzyme it was 79.4 nM.

On to `CCc1cc2ccc(C(C)(C#N)CCOc3ccnc(SC)n3)cc2[nH]c1=O` (stereo not drawn) [Compound 348], for which the IC50 in the test on HCT116 cells was 3160 nM; on Human PARP-1 enzyme it was 79.4 nM.

For the molecule `CCc1cc2ccc(C(C)(C#N)CCOc3ncc(Br)cn3)cc2[nH]c1=O` (stereo not drawn) [Compound 349], the IC50 with HCT116 cells is 631 nM; at Human PARP-1 enzyme it was 63.1 nM.

With `CCc1cc2ccc(C(C)(C#N)Cc3nc(C)cc(OC)n3)cc2[nH]c1=O` (stereo not drawn) [Compound 371], the figures for the IC50 with HCT116 cells and at Human PARP-1 enzyme were 316 nM and 100 nM, respectively.

`CCc1cc2ccc(C(C)(C#N)CN3CCN(c4ncc(Br)cn4)CC3)cc2[nH]c1=O` (stereo not drawn) [Compound 374]: the IC50 in the test with HCT116 cells is 501 nM; at Human PARP-1 enzyme it was 100 nM.

For the molecule `CCc1cc2ccc(C(C)(C#N)CN3CCc4ccccc4C3)cc2[nH]c1=O` (stereo not drawn) [Compound 376], the figures for the IC50 with HCT116 cells and at Human PARP-1 enzyme were 2000 nM and 158 nM, respectively.

Take `Cc1cc2ccc([C@@](C)(C#N)[C@@H]3CCCc4ccccc43)cc2[nH]c1=O` [Compound 382]: the figures for the IC50 in the test on HCT116 cells and on Human PARP-1 enzyme were 5010 nM and 501 nM, respectively.

Turning to `CCc1cc2ccc(C(C#N)(CC)Cc3cccc(CN)c3)cc2[nH]c1=O` (stereo not drawn) [Compound 390], the IC50 was 631 nM in the test with HCT116 cells and 63.1 nM on Human PARP-1 enzyme.

For the molecule `CCc1cc2ccc([C@](C)(C#N)C[C@H]3Cc4ccccc4O3)cc2[nH]c1=O` [Compound 397], the IC50 with HCT116 cells was 7940 nM; on Human PARP-1 enzyme it was 126 nM.

For the molecule `CCc1cc2ccc(C(C)(C#N)CC3Oc4ccccc4O3)cc2[nH]c1=O` (stereo not drawn) [Compound 398], the figures for the IC50 with HCT116 cells and on Human PARP-1 enzyme were 5010 nM and 100 nM, respectively.

As to `CCc1cc2ccc(C(C)(C#N)Cc3cc(F)cc(F)c3)cc2[nH]c1=O` (stereo not drawn) [Compound 402], the “HCT116 antiproliferative activity pIC50” value in the test on HCT116 cells (HCT116 cells) was 6.7. Also, the IC50 at Human PARP-1 enzyme is 50.1 nM.

Consider `CCc1cc2ccc(C(C#N)(CC)C3CCc4ccc(OC)cc43)cc2[nH]c1=O` (stereo not drawn) [Compound 403], for which the figures for the IC50 with HCT116 cells and on Human PARP-1 enzyme were 158 nM and 501 nM, respectively.

Take `Cc1cc2ccc([C@@](C)(C#N)[C@H]3CCc4ccc(Br)cc43)cc2[nH]c1=O` [Compound 405]: the figures for the IC50 in the test with HCT116 cells and on Human PARP-1 enzyme were 50.1 nM and 316 nM, respectively.

As to `Cc1cc2ccc([C@](C)(C#N)[C@@H]3CCc4ccc(Br)cc43)cc2[nH]c1=O` [Compound 406], the IC50 was 10000 nM in the test on HCT116 cells and 158 nM at Human PARP-1 enzyme.

As for `Cc1cc2ccc([C@](C)(C#N)[C@H]3CCc4ccc(Br)cc43)cc2[nH]c1=O` [Compound 407], the IC50 in the test on HCT116 cells and at Human PARP-1 enzyme was 631 nM each time.
